Columns and labels:
ISC-enriched organoids [1] = assay: Primary screen, 384-well 2.5-D organoid differentiation (ENR+CD, 6 days): basal lysozyme secretion (LYZ.NS); assay type: cell-based, murine; conditions: for Dose.FC.LYZ.NS (log 2 fold change, basal lysozyme secretion): vs plate median; for Dose.FC.LYZ.NS / Z.LYZ.NS: primary screen; for Dose.FC.LYZ.NS: ENR+CD 6 days, FC vs plate median; for Z.LYZ.NS: standard z score of FC
From the text: (§1) High-throughput screening.

ISC-enriched organoids [2] = assay: Primary screen, 384-well 2.5-D organoid differentiation (ENR+CD, 6 days): carbachol-induced lysozyme secretion (LYZ.S); assay type: cell-based, murine; conditions: for Dose.FC.LYZ.S (log 2 fold change, carbachol-induced lysozyme secretion): vs plate median; for Dose.FC.LYZ.S: primary screen, ENR+CD 6 days, FC vs plate median
From the text: as §1

ISC-enriched organoids [3] = assay: Primary screen, 384-well 2.5-D organoid differentiation (ENR+CD, 6 days, Target Selective Inhibitor Library, vs whole-plate median): ATP (CellTiter-Glo 3D, CTG); conditions: for Dose.FC.CTG (log 2 fold change, ATP): vs plate median; for Dose.FC.CTG / Z.CTG: primary screen; for Dose.FC.CTG: ENR+CD 6 days, FC vs plate median; for Z.CTG: standard z score of FC
[4] = dose 0.08 uM (1st of 4 lines per treatment; dose not printed in this part)
[5] = dose 0.40 uM (2nd of 4 lines per treatment; dose not printed in this part)
[6] = dose 2.00 uM (3rd of 4 lines per treatment; dose not printed in this part)
[7] = dose 10.00 uM (4th of 4 lines per treatment; dose not printed in this part)

Q: Which results are given for `Cl.Cl.Cl.O[C@@H](COc1cccc2ncccc12)CN1CCN([C@@H]2c3ccccc3[C@@H]3[C@H](c4ccccc42)C3(F)F)CC1` [Zosuquidar (LY335979) 3HCl]?
A: Z.LYZ.NS (standard z score) (ISC-enriched organoids [1]; dose 0.08 uM): 0.839; Dose.FC.LYZ.NS (log 2 fold change, basal lysozyme secretion) (ISC-enriched organoids [1]; dose 0.08 uM): 0.096; Z.LYZ.NS (standard z score) (ISC-enriched organoids [1]; dose 0.40 uM): 0.696; Dose.FC.LYZ.NS (log 2 fold change, basal lysozyme secretion) (ISC-enriched organoids [1]; dose 0.40 uM): 0.080; Z.LYZ.NS (standard z score) (ISC-enriched organoids [1]; dose 2.00 uM): 1.802; Dose.FC.LYZ.NS (log 2 fold change, basal lysozyme secretion) (ISC-enriched organoids [1]; dose 2.00 uM): 0.207; Z.LYZ.NS (standard z score) (ISC-enriched organoids [1]; dose 10.00 uM): −1.821; Dose.FC.LYZ.NS (log 2 fold change, basal lysozyme secretion) (ISC-enriched organoids [1]; dose 10.00 uM): −0.209; Dose.FC.LYZ.S (log 2 fold change, carbachol-induced lysozyme secretion) (ISC-enriched organoids [2]; dose 0.08 uM): 0.124; Dose.FC.LYZ.S (log 2 fold change, carbachol-induced lysozyme secretion) (ISC-enriched organoids [2]; dose 0.40 uM): 0.127; Dose.FC.LYZ.S (log 2 fold change, carbachol-induced lysozyme secretion) (ISC-enriched organoids [2]; dose 2.00 uM): 0.129; Dose.FC.LYZ.S (log 2 fold change, carbachol-induced lysozyme secretion) (ISC-enriched organoids [2]; dose 10.00 uM): −0.200; Z.CTG (standard z score) (ISC-enriched organoids [3]; dose 0.08 uM): 0.041; Dose.FC.CTG (log 2 fold change, ATP) (ISC-enriched organoids [3]; dose 0.08 uM): 0.017; Z.CTG (standard z score) (ISC-enriched organoids [3]; dose 0.40 uM): 0.470; Dose.FC.CTG (log 2 fold change, ATP) (ISC-enriched organoids [3]; dose 0.40 uM): 0.197; Z.CTG (standard z score) (ISC-enriched organoids [3]; dose 2.00 uM): 0.659; Dose.FC.CTG (log 2 fold change, ATP) (ISC-enriched organoids [3]; dose 2.00 uM): 0.276; Z.CTG (standard z score) (ISC-enriched organoids [3]; dose 10.00 uM): −0.461; Dose.FC.CTG (log 2 fold change, ATP) (ISC-enriched organoids [3]; dose 10.00 uM): −0.193

Q: With (−)-MK 801 Maleate as the molecule, how does the “SSMD.LYZ.NS_Rep (strictly standardized mean difference)” value (ISC-enriched organoids [1]; [4]) read?
A: 0.070

Q: And the “SSMD.LYZ.NS_Rep (strictly standardized mean difference)” value (ISC-enriched organoids [1]; [5])?
A: −0.550

Q: What about the “SSMD.LYZ.NS_Rep (strictly standardized mean difference)” value (ISC-enriched organoids [1]; [6]) of the same molecule?
A: −1.315

Q: And the “SSMD.LYZ.NS_Rep (strictly standardized mean difference)” value (ISC-enriched organoids [1]; [7])?
A: −1.708

Q: And the Dose.FC.LYZ.NS (ISC-enriched organoids [1]; dose 0.08 uM)?
A: 0.008 log 2 fold change

Q: What about the Z.LYZ.NS (ISC-enriched organoids [1]; dose 0.08 uM) of the same molecule?
A: 0.072

Q: And the Dose.FC.LYZ.NS (ISC-enriched organoids [1]; dose 0.40 uM)?
A: −0.099 log 2 fold change

Q: And the Z.LYZ.NS (ISC-enriched organoids [1]; dose 0.40 uM)?
A: −0.864

Q: What about the Dose.FC.LYZ.NS (ISC-enriched organoids [1]; dose 2.00 uM) of the same molecule?
A: −0.256 log 2 fold change

Q: What about the Z.LYZ.NS (ISC-enriched organoids [1]; dose 2.00 uM) of the same molecule?
A: −2.227

Q: And the Dose.FC.LYZ.NS (ISC-enriched organoids [1]; dose 10.00 uM)?
A: −0.259 log 2 fold change

Q: And the Z.LYZ.NS (ISC-enriched organoids [1]; dose 10.00 uM)?
A: −2.255

Q: And the “SSMD.LYZ.S_Rep (strictly standardized mean difference)” value (ISC-enriched organoids [2]; [4])?
A: 0.116

Q: And the “Z.LYZ.S (standard z score)” value (ISC-enriched organoids [2]; [4])?
A: 0.099

Q: And the “SSMD.LYZ.S_Rep (strictly standardized mean difference)” value (ISC-enriched organoids [2]; [5])?
A: −0.976

Q: And the “Z.LYZ.S (standard z score)” value (ISC-enriched organoids [2]; [5])?
A: −1.159

Q: What about the “SSMD.LYZ.S_Rep (strictly standardized mean difference)” value (ISC-enriched organoids [2]; [6]) of the same molecule?
A: −1.187

Q: What about the “Z.LYZ.S (standard z score)” value (ISC-enriched organoids [2]; [6]) of the same molecule?
A: −2.160

Q: And the “SSMD.LYZ.S_Rep (strictly standardized mean difference)” value (ISC-enriched organoids [2]; [7])?
A: −1.768

Q: And the “Z.LYZ.S (standard z score)” value (ISC-enriched organoids [2]; [7])?
A: −2.604

Q: What about the Dose.FC.LYZ.S (ISC-enriched organoids [2]; dose 0.08 uM) of the same molecule?
A: 0.015 log 2 fold change

Q: And the Dose.FC.LYZ.S (ISC-enriched organoids [2]; dose 0.40 uM)?
A: −0.179 log 2 fold change

Q: And the Dose.FC.LYZ.S (ISC-enriched organoids [2]; dose 2.00 uM)?
A: −0.334 log 2 fold change

Q: What about the Dose.FC.LYZ.S (ISC-enriched organoids [2]; dose 10.00 uM) of the same molecule?
A: −0.403 log 2 fold change

Q: And the “SSMD.CTG_Rep (strictly standardized mean difference)” value (ISC-enriched organoids [3]; [4])?
A: 0.442

Q: What about the “SSMD.CTG_Rep (strictly standardized mean difference)” value (ISC-enriched organoids [3]; [5]) of the same molecule?
A: −1.342

Q: What about the “SSMD.CTG_Rep (strictly standardized mean difference)” value (ISC-enriched organoids [3]; [6]) of the same molecule?
A: −1.102

Q: What about the “SSMD.CTG_Rep (strictly standardized mean difference)” value (ISC-enriched organoids [3]; [7]) of the same molecule?
A: −1.696

Q: And the Dose.FC.CTG (ISC-enriched organoids [3]; dose 0.08 uM)?
A: 0.127 log 2 fold change

Q: And the Z.CTG (ISC-enriched organoids [3]; dose 0.08 uM)?
A: 0.303

Q: And the Dose.FC.CTG (ISC-enriched organoids [3]; dose 0.40 uM)?
A: −0.377 log 2 fold change

Q: What about the Z.CTG (ISC-enriched organoids [3]; dose 0.40 uM) of the same molecule?
A: −0.899

Q: What about the Dose.FC.CTG (ISC-enriched organoids [3]; dose 2.00 uM) of the same molecule?
A: −0.702 log 2 fold change

Q: What about the Z.CTG (ISC-enriched organoids [3]; dose 2.00 uM) of the same molecule?
A: −1.677

Q: What about the Dose.FC.CTG (ISC-enriched organoids [3]; dose 10.00 uM) of the same molecule?
A: −0.936 log 2 fold change

Q: What about the Z.CTG (ISC-enriched organoids [3]; dose 10.00 uM) of the same molecule?
A: −2.236

Q: BAM7 was tested. Which Dose.FC.LYZ.NS (ISC-enriched organoids [1]; dose 0.08 uM) did it give?
A: 0.045 log 2 fold change

Q: And the Z.LYZ.NS (ISC-enriched organoids [1]; dose 0.08 uM)?
A: 0.391

Q: What about the Dose.FC.LYZ.NS (ISC-enriched organoids [1]; dose 0.40 uM) of the same molecule?
A: −0.009 log 2 fold change

Q: What about the Z.LYZ.NS (ISC-enriched organoids [1]; dose 0.40 uM) of the same molecule?
A: −0.082

Q: What about the Dose.FC.LYZ.NS (ISC-enriched organoids [1]; dose 2.00 uM) of the same molecule?
A: 0.057 log 2 fold change

Q: What about the Z.LYZ.NS (ISC-enriched organoids [1]; dose 2.00 uM) of the same molecule?
A: 0.498

Q: What about the Dose.FC.LYZ.NS (ISC-enriched organoids [1]; dose 10.00 uM) of the same molecule?
A: −0.007 log 2 fold change

Q: What about the Z.LYZ.NS (ISC-enriched organoids [1]; dose 10.00 uM) of the same molecule?
A: −0.063

Q: What about the Dose.FC.LYZ.S (ISC-enriched organoids [2]; dose 0.08 uM) of the same molecule?
A: 0.079 log 2 fold change

Q: And the Dose.FC.LYZ.S (ISC-enriched organoids [2]; dose 0.40 uM)?
A: 0.039 log 2 fold change

Q: And the Dose.FC.LYZ.S (ISC-enriched organoids [2]; dose 2.00 uM)?
A: 0.019 log 2 fold change

Q: What about the Dose.FC.LYZ.S (ISC-enriched organoids [2]; dose 10.00 uM) of the same molecule?
A: −0.020 log 2 fold change

Q: And the Dose.FC.CTG (ISC-enriched organoids [3]; dose 0.08 uM)?
A: 0.209 log 2 fold change

Q: And the Z.CTG (ISC-enriched organoids [3]; dose 0.08 uM)?
A: 0.498

Q: And the Dose.FC.CTG (ISC-enriched organoids [3]; dose 0.40 uM)?
A: −0.010 log 2 fold change

Q: What about the Z.CTG (ISC-enriched organoids [3]; dose 0.40 uM) of the same molecule?
A: −0.024

Q: And the Dose.FC.CTG (ISC-enriched organoids [3]; dose 2.00 uM)?
A: −0.156 log 2 fold change

Q: And the Z.CTG (ISC-enriched organoids [3]; dose 2.00 uM)?
A: −0.373

Q: And the Dose.FC.CTG (ISC-enriched organoids [3]; dose 10.00 uM)?
A: −0.114 log 2 fold change

Q: What about the Z.CTG (ISC-enriched organoids [3]; dose 10.00 uM) of the same molecule?
A: −0.272
